Tested on: human dermal fibroblast cells
Experiment: Cytotoxicity test of chitosan derivates in vitro (MTT)
Format: cell-based
Conditions: 48 hours after treatment
Description: 1×10^4 of human dermal fibroblast cells in 96 well plate were cultured in DMEM medium supplemented with 100 μl of 10% serum. Then, the cultured cells were treated with 5, 50, and 500 ng/ml of chitosan oligomer, CM-chitin and 3,6-S-chitin, respectively. 48 hours after treatment, MTT (3-[4,5-dimethylthiazol-2-yl]-2,5-diphenyltetrazolium bromide; Thiazolyl blue, Sigma Product No. M5655) was added thereto and then, the mixture was allowed to stand for 4 hours. After removal of the culture medium, the resultant mixture was washed with phosphate buffered saline 2-3 times and 100 μl of DMSO (dimethylsulfoxide) was added thereto. After chromogenesis, an absorbance was measured at 545 nm on each well using ELISA reader.

Substance	Viability Assay Result Of Human Dermal Fibroblasts (MTT absorbance at 545 nm) (5 ng/ml)	Viability Assay Result Of Human Dermal Fibroblasts (MTT absorbance at 545 nm) (50 ng/ml)	Viability Assay Result Of Human Dermal Fibroblasts (MTT absorbance at 545 nm) (500 ng/ml)
3,6-S-chitin	0.608	0.727	0.595
CM-chitin	0.603	0.630	0.603
chitosan oligomer	0.629	0.618	0.733
